Data reported in the NIST ThermoML archive (doi:10.1016/j.fluid.2012.05.007).

Columns and labels:
[1] = wn = mass fraction of the nth substance listed; details: for viscosity / mass density: 101 kPa, Liquid; for viscosity: Capillary tube (Ostwald / Ubbelohde) method; for mass density: Pycnometric method; for surface tension liquid-gas: Pendant drop shape
[2] = mn = molality of the nth substance listed, in mol/kg; details: for surface tension liquid-gas: Pendant drop shape; for viscosity / mass density: 101 kPa, Liquid; for viscosity: Capillary tube (Ostwald / Ubbelohde) method; for mass density: Pycnometric method
[3] = 288.15 K

CN(CCO)CCO [N-methyldiethanolamine] + O
[1]
Details | mass density, 288.15 K [kg/m3] | mass density, 313.15 K [kg/m3] | surface tension liquid-gas, 313.15 K [mN/m] | viscosity, 288.15 K [mPa·s] | viscosity, 313.15 K [mPa·s]
w1 = 0.1 | 1007.1 | 1001.1 | 58.71 | 1.711 | 0.905
w1 = 0.2 | 1017.5 | 1008.1 | 54.68 | 2.631 | 1.312

O=C([O-])CC(O)(CC(=O)[O-])C(=O)[O-].[K+].[K+].[K+] [potassium citrate] + O
[2]
Details | mass density, 293.15 K [kg/m3] | mass density, 303.15 K [kg/m3] | mass density, 313.15 K [kg/m3] | mass density, 323.15 K [kg/m3] | surface tension liquid-gas, 293.15 K [mN/m] | viscosity, 293.15 K [mPa·s] | viscosity, 303.15 K [mPa·s] | viscosity, 313.15 K [mPa·s] | viscosity, 323.15 K [mPa·s]
m1 = 0.45 | 1117.7 | 1112.9 | 1107.8 | 1104.3 | 71.49 | 1.342 | 1.05 | 0.845 | 0.695
m1 = 0.83 | 1201.1 | 1197.2 | 1193.4 | 1190.3 | 75.75 | 1.891 | 1.448 | 1.127 | 0.925
m1 = 1.16 | 1294.6 | 1282.5 | 1274.6 | 1263.7 | 79.08 | 2.933 | 2.205 | 1.644 | 1.291
m1 = 1.48 | 1355.7 | 1343.2 | 1331.9 | 1322.8 | 81.1 | 4.989 | 3.56 | 2.597 | 1.986

O [water]
Details | surface tension liquid-gas [mN/m]
[3], Pendant drop shape | 75.16

Details | viscosity [mPa·s]
[3], 101 kPa, Liquid, Capillary tube (Ostwald / Ubbelohde) method | 1.144
